Experiments:
Type in all cases: biochemical
bovine trypsin = molecular target: T1, bovine trypsin (Bos taurus, UniProt P00760); experiment: Inactivation rate of bovine trypsin, incubation method; conditions: for kobsd /[I] bovine trypsin: Table I, 0.1M Hepes, 0.01M CaCl2 pH 7.5, 25° C., 2% DMSO, substrate Z--Arg--SBzl, NI = no inhibition after 25 min; for kobs /[I] bovine trypsin: Table II, 0.13 μM trypsin, 0.25-42 μM inhibitor, 80 mM Hepes pH 7.5, 1 mM CaCl2, 8% DMSO, 25° C., NI = no inhibition
T1 sequence (P00760 24-246): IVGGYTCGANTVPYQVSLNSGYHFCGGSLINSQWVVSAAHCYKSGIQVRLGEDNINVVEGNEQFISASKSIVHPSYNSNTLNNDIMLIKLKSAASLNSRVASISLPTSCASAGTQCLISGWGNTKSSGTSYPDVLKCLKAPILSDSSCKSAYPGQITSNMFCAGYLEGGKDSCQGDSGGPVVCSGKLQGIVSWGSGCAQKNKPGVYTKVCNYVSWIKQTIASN
Summary of the method: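 Incubation method: trypsin pre-incubated with inhibitor (0.25-42 μM) at 25° C in 80 mM Hepes, 1 mM CaCl2, pH 7.5, 8% DMSO; aliquots withdrawn over time for residual activity on Z-Arg-SBzl thioester with DTNB or 4,4'-dithiodipyridine. Pseudo-first-order kobs from ln vt/vo versus time.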

human thrombin = molecular target: T2, human thrombin (Homo sapiens, UniProt P00734); conditions: Table II; 0.07 μM thrombin, 0.25-42 μM inhibitor, 80 mM Hepes pH 7.5, 428 mM NaCl, 8% DMSO, 25° C.; NI = no inhibition
T2 construct: bovine trypsin, human thrombin
Summary of the method: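 Irreversible inactivation followed by incubation method at 25 °C: 0.07 μM thrombin with 0.25–42 μM inhibitor in 80 mM Hepes pH 7.5, 428 mM NaCl, 8% DMSO. Residual activity of withdrawn aliquots measured with thioester or 4-nitroanilide substrates; kobs from pseudo-first-order fits.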

rat granzyme K = molecular target: T3, rat granzyme K (Rattus norvegicus, UniProt P49864); experiment: Inactivation rate of rat granzyme K, incubation method; conditions: Table I; 0.1M Hepes, 0.01M CaCl2 pH 7.5, 25° C., 7.1% DMSO, substrate Z--Arg--SBzl; NI = no inhibition after 25 min of incubation
T3 sequence (P49864 26-258): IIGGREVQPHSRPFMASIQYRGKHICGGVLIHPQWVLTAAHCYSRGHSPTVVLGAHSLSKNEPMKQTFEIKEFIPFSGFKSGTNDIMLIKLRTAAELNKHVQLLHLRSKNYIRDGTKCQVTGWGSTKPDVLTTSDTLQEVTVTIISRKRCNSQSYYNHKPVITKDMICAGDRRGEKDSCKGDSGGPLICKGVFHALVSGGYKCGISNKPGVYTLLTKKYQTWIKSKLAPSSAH
Summary of the method: (§1)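 Inhibitor in DMSO added to enzyme (0.01-2.3 μM) in 0.1 M HEPES, 0.01 M CaCl2, pH 7.5, 25° C (DMSO 7.6% for granzyme A, 7.1% for granzyme K); residual activity on Z-Arg-SBzl with DTNB read at intervals. Kobs from ln vt/vo vs time plots.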

rat granzyme A = experiment: Inactivation rate of rat granzyme A, incubation method; conditions: Table I; 0.1M Hepes, 0.01M CaCl2 pH 7.5, 25° C., 7.6% DMSO, substrate Z--Arg--SBzl
Experimental: Inactivation rates of serine proteases by aryl diesters of peptidyl derivatives of α-aminoalkylphosphonates were measured by the incubation method. An aliquot of inhibitor (25 or 50 μl) in Me2 SO was added to a buffered enzyme solution (0.01-2.3 μM) to initiate the inactivation. Aliquots (50 μl) were withdrawn at various intervals and the residual enzymatic activity was measured. Me2 SO concentration in the reaction mixture was 8-12% (v/v). A 0.1 M HEPES, 0.01 M CaCl2, pH 7.5 buffer was utilized for trypsin and trypsin-like enzymes. A 0.1 M HEPES, 0.5 M NaCl, pH 7.5, was utilized for the other serine proteases. Peptide thioesters or peptide nitroanilides with the appropriate sequences were used as substrates for various serine proteases. All peptide thioesters hydrolysis rates were measured with the assay mixture containing 4,4'-dithiodipyridine {ε324 =19800 M^-1 cm^-1; Grasetti & Murray, Arch. Biochem. Biophys. 1967, 119, 41-48}. Peptide 4-nitroanilide hydrolysis was measured at 410 nm {ε410 =8800 M^-1 cm^-1; Erlanger et al., Arch. Biochem. Biophys. 1961, 95, 271-278}. First order inactivation rate constants (Kobs) were obtained from plots of In vt /vo vs time, and the correlation coefficients were greater then 0.98.
^a Inhibition constants were measured in 0.1M Hepes, 0.01M CaCl2
pH 7.5 for trypsin, granzymes A, and K, and in 0.1M Hepes, 10% glycerol,
10 mM heparin, pH 7.5 for mast cell tryptase, and at 25° C. The
reaction mixtures contained 2% DMSO for trypsin, 7.6% for granzyme A, and
7.1% for granzyme K and tryptase. The substrate was Z--Arg--SBzl for
granzymes and trypsin, and Z--Arg--SBzl or Z--Lys--SBzl for tryptase in
the presence of DTNB. The inhibitor # concentration ranged from 0.001 to
^b NI, no inhibition after 25 min of incubation with enzyme.

human granzyme A = molecular target: T4, human granzyme A (Homo sapiens, UniProt P12544); experiment: Inactivation rate of human granzyme A, incubation method; conditions: Table I; 0.1M Hepes, 0.01M CaCl2 pH 7.5, 25° C., 7.6% DMSO, substrate Z--Arg--SBzl
T4 sequence (P12544 29-262): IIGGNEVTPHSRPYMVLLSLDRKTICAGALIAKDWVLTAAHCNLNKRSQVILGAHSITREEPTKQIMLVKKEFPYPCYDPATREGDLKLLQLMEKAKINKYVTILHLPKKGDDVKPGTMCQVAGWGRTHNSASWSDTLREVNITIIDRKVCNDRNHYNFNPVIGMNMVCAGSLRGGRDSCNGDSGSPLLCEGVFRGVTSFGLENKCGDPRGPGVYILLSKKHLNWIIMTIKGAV
Summary of the method: as §1

mast cell tryptase = mast cell tryptase (Homo sapiens, UniProt Q15661); experiment: Inactivation rate of mast cell tryptase, incubation method; conditions: for kobsd /[I] mast cell tryptase: 0.1M Hepes, 10% glycerol, 10 mM heparin, pH 7.5, 25° C., 7.1% DMSO, NI = no inhibition after 25 min of incubation; for kobs /[I] mast cell tryptase: 0.07 μM tryptase, 20-66 μM inhibitor, Hepes pH 7.5, heparin, 9% glycerol, 8% DMSO, 25° C., NI = no inhibition
Sequence of mast cell tryptase (Q15661 31-275): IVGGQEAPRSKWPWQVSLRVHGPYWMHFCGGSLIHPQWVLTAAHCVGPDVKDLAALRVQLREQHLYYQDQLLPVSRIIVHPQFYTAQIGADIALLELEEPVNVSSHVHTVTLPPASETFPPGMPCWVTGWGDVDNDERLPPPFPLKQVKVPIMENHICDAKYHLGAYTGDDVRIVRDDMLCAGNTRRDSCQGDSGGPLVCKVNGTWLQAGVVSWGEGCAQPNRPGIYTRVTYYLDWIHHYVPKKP
Summary of the method: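 Incubation method at 25 °C: 0.07 μM tryptase with 20–66 μM inhibitor in Hepes pH 7.5 containing heparin, glycerol and DMSO. Aliquots were withdrawn at intervals for residual activity on Z-Arg-SBzl or Z-Lys-SBzl with DTNB. Pseudo-first-order kobs came from ln(vt/v0) versus time.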

SMILES | kobsd /[I] bovine trypsin (bovine trypsin) | kobs /[I] bovine trypsin (bovine trypsin) | kobs /[I] human thrombin (human thrombin) | kobsd /[I] rat granzyme K (rat granzyme K) | kobsd /[I] rat granzyme A (rat granzyme A) | kobsd /[I] human granzyme A (human granzyme A) | kobsd /[I] mast cell tryptase (mast cell tryptase; Table I) | kobs /[I] mast cell tryptase (mast cell tryptase; Table II) | % Inh mast cell tryptase (mast cell tryptase; Table I, printed in the kobsd/[I] column) | % Inh mast cell tryptase (mast cell tryptase; Table II, printed in the kobs/[I] column)
CC(NC(=O)OCc1ccccc1)C(=O)NC(C)C(=O)NC(C)C(=O)NC(c1ccc(C(=N)N)cc1)P(=O)(Oc1ccccc1)Oc1ccccc1 (mixture of isomers) [Cbz--Ala--Ala--Ala-(4-AmPhGly)^P (OPh)2] | 1780 ± 33 M⁻¹ s⁻¹ | 1,780 ± 33 M^-1 s^-1 | 1,290 ± 26 M^-1 s^-1 | 7 M⁻¹ s⁻¹ | 590 ± 17 M⁻¹ s⁻¹ | 730 ± 15 M⁻¹ s⁻¹ | 2 M⁻¹ s⁻¹ | 2.0 ± 0.2 M⁻¹ s⁻¹ |  | 
N=C(N)c1ccc(C(NC(=O)C(Cc2ccccc2)NC(=O)OCc2ccccc2)P(=O)(Oc2ccccc2)Oc2ccccc2)cc1 (mixture of isomers) [Cbz--Phe-(4-AmPhGly)^P (OPh)2] | 17 ± 1 M⁻¹ s⁻¹ | 17 ± 1 M⁻¹ s⁻¹ | 20 ± 1 M⁻¹ s⁻¹ | 13 M⁻¹ s⁻¹ | 8 M⁻¹ s⁻¹ | 14 ± 1 M⁻¹ s⁻¹ |  |  | 5% | 5%
Cl.N=C(N)c1ccc(C(NC(=O)c2ccccc2Oc2ccccc2)P(=O)(Oc2ccccc2)Oc2ccccc2)cc1 (stereo not drawn) [2-Phenoxybenzoyl-(4-AmPhGly)^P (OPh)2, Diphenyl N-(2-Phenoxybenzoyl)amino(4-amidinophenyl)methanephosphonate Hydrochloride] | 670 ± 53 M⁻¹ s⁻¹ | 670 ± 53 M⁻¹ s⁻¹ | 270 ± 20 M⁻¹ s⁻¹ | 1 M⁻¹ s⁻¹ | 340 ± 1 M⁻¹ s⁻¹ | 540 ± 3 M⁻¹ s⁻¹ | 0.4 M⁻¹ s⁻¹ | 0.4 M⁻¹ s⁻¹ |  | 
Cl.N=C(N)c1ccc(C(NC(=O)c2cccc(Oc3ccccc3)c2)P(=O)(Oc2ccccc2)Oc2ccccc2)cc1 (stereo not drawn) [3-Phenoxybenzoyl-(4-AmPhGly)^P (OPh)2, Diphenyl N-(3-Phenoxybenzoyl)amino(4-amidinophenyl)methanephosphonate Hydrochloride] | 50 ± 2 M⁻¹ s⁻¹ | 50 ± 2 M⁻¹ s⁻¹ | 200 ± 8 M⁻¹ s⁻¹ | 1 M⁻¹ s⁻¹ | 470 ± 14 M⁻¹ s⁻¹ | 340 ± 53 M⁻¹ s⁻¹ |  |  |  | 
Cl.N=C(N)c1ccc(C(NC(=O)C=Cc2ccco2)P(=O)(Oc2ccccc2)Oc2ccccc2)cc1 (stereo not drawn) [(2-Furyl)acryloyl-(4-AmPhGly)^P (OPh)2, Diphenyl N-(3-(2-Furyl)acryloyl)amino(4-amidinophenyl)methanephosphonate Hydrochloride] | 360 ± 28 M⁻¹ s⁻¹ | 360 ± 28 M⁻¹ s⁻¹ | 15 ± 1 M⁻¹ s⁻¹ | 32 M⁻¹ s⁻¹ | 1740 ± 237 M⁻¹ s⁻¹ | 1740 ± 41 M⁻¹ s⁻¹ |  |  |  | 
C[C@H](NC(=O)OCc1ccccc1)C(=O)N[C@@H](C)C(=O)NC(c1ccc(C(=N)N)cc1)P(=O)(Oc1ccccc1)Oc1ccccc1 (stereo partly drawn) [Cbz--Ala--Ala-(4-AmPhGly)^P (OPh)2] | 3620 ± 588 M⁻¹ s⁻¹ | 3,620 ± 588 M^-1 s^-1 | 3,030 ± 222 M^-1 s^-1 | 5 M⁻¹ s⁻¹ | 480 ± 27 M⁻¹ s⁻¹ | 820 ± 29 M⁻¹ s⁻¹ | 2 M⁻¹ s⁻¹ | 2 ± 0 M⁻¹ s⁻¹ |  | 
Cl.N=C(N)c1ccc(C(NC(=O)C=Cc2cccs2)P(=O)(Oc2ccccc2)Oc2ccccc2)cc1 (stereo not drawn) [Diphenyl N-(3-(2-Thienyl)acryloyl)amino(4-amidinophenyl)methanephosphonate Hydrochloride] | 300 ± 22 M⁻¹ s⁻¹ | 300 ± 22 M⁻¹ s⁻¹ | 90 ± 4 M⁻¹ s⁻¹ | 4 M⁻¹ s⁻¹ | 430 ± 31 M⁻¹ s⁻¹ | 740 ± 18 M⁻¹ s⁻¹ | 1 M⁻¹ s⁻¹ | 1 M⁻¹ s⁻¹ |  | 
Cl.N=C(N)c1ccc(C(NC(=O)/C=C/c2ccccc2)P(=O)(Oc2ccccc2)Oc2ccccc2)cc1 (stereo not drawn) [trans-Cinnamoyl-(4-AmPhGly)^P (OPh)2, Diphenyl N-(trans-Cinnamoyl)amino(4-amidinophenyl)methanephosphonate Hydrochloride] | 110 ± 1 M⁻¹ s⁻¹ | 110 ± 1 M⁻¹ s⁻¹ | 20 ± 1 M⁻¹ s⁻¹ | 3 M⁻¹ s⁻¹ | 340 ± 18 M⁻¹ s⁻¹ | 400 ± 10 M⁻¹ s⁻¹ | 0.3 M⁻¹ s⁻¹ | 0.3 M⁻¹ s⁻¹ |  | 
